Literature values in US9820991B2, “Pharmaceutical composition comprising brinzolamide” (SENTISS PHARMA PVT. LTD., priority 2013, dated 2017).

Settings: in tear fluid

- solubility: around 0.08%
Structure (SMILES): CCN[C@H]1CN(CCCOC)S(=O)(=O)c2sc(S(N)(=O)=O)cc21 [brinzolamide, (R)-(+)-4-Ethylamino-2-(3-methoxypropyl)-3,4-dihydro-2H-thieno [3,2-e]-1,2-thiazine-6-sulfonamide-1,1-dioxide]
